Results as given in ChEMBL document CHEMBL3817749, “1,3-Oxazin-6-one Derivatives and Bohemamine-Type Pyrrolizidine Alkaloids from a Marine-Derived Streptomyces spinoverrucosus” (J Nat Prod, 2016).
Activity calls are given as the source filed them.

Experiments:
[1] = tested on: Pseudomonas aeruginosa; assay: Antibacterial activity against Pseudomonas aeruginosa assessed as zones of growth inhibition incubated for 24 hrs by […]; assay type: functional, organism-based
[2] = tested on: HCC44; assay: Cytotoxicity against human HCC44 cells assessed as reduction in cell viability incubated for 96 hrs by Cell-titer Glo reagent based assay; assay type: functional
[3] = tested on: HCC366; assay: Cytotoxicity against human HCC366 cells assessed as reduction in cell viability incubated for 96 hrs by Cell-titer Glo reagent based assay; assay type: functional
[4] = organism: Homo sapiens; assay: Cytotoxicity against human HCC1171 cells assessed as reduction in cell viability incubated for 96 hrs by Cell-titer Glo reagent based assay; assay type: functional
[5] = tested on: A549; assay: Cytotoxicity against human A549 cells assessed as reduction in cell viability incubated for 96 hrs by Cell-titer Glo reagent based assay; assay type: functional
[6] = tested on: Bacillus subtilis; assay: Antibacterial activity against Bacillus subtilis assessed as zones of growth inhibition incubated for 24 hrs by […]; assay type: functional, organism-based

CC(C)=CC(=O)NC1=CC(=O)[C@]2(C)C=C[C@H](C)N12
inactive: growth inhibition (GI) [1] | Activity [2] | Activity [3] | Activity [4] | Activity [5] | growth inhibition (GI) [6]

C[C@H]1CC[C@@]2(C)C(=O)C=C(NC(=O)c3ccccc3)N12
inactive: growth inhibition (GI) [1] | Activity [2] | Activity [3] | Activity [4] | Activity [5] | growth inhibition (GI) [6]

CC(C)/C=C/C(=O)NC1=CC(=O)[C@]2(C)CC[C@H](C)N12
inactive: growth inhibition (GI) [1] | Activity [2] | Activity [3] | Activity [4] | Activity [5] | growth inhibition (GI) [6]

CC(C)=CC(=O)NC1=CC(=O)[C@@]2(O)CC[C@H](C)N12
inactive: growth inhibition (GI) [1] | Activity [2] | Activity [3] | Activity [4] | Activity [5] | growth inhibition (GI) [6]

CC(C)=Cc1nc(N2C(=O)CC[C@@H]2C)cc(=O)o1
inactive: growth inhibition (GI) [1] | Activity [2] | Activity [3] | Activity [4] | Activity [5] | growth inhibition (GI) [6]

C/C=C(\C)C(=O)NC1=CC(=O)[C@]2(C)CC[C@H](C)N12
inactive: growth inhibition (GI) [1] | Activity [2] | Activity [3] | Activity [4] | Activity [5] | growth inhibition (GI) [6]

CC(C)=Cc1nc(N2C(=O)C[C@H](O)[C@@H]2C)cc(=O)o1
inactive: growth inhibition (GI) [1] | Activity [2] | Activity [3] | Activity [4] | Activity [5] | growth inhibition (GI) [6]

CC(C)=CC(=O)NC1=CC(=O)[C@]2(C)[C@H](O)[C@@H](O)[C@H](C)N12
inactive: growth inhibition (GI) [1] | Activity [2] | Activity [3] | Activity [4] | Activity [5] | growth inhibition (GI) [6]
